In the assay the test system is SMN2-luciferase reporter. The experiment in a line: SMN2-luciferase reporter qHTS assay. It counts as cell-based, human. Also on record: key to Curve Class: A curve class of 1.1 is a full agonist/antagonist; a curve class of 4 indicates the compound is inactive. Conditions: for Curve Class: agonist/antagonist character of the concentration-response, lower values = more significant concentration-response; for Increased SMN2 activity: percent increase (or decrease) in SMN2 levels compared to control in which no test compound is added. The text has this: A cell-based quantitative high throughput screening (qHTS) assay is used to identify compounds able to increase SMN production. The assay uses a SMN2-luciferase reporter to determine if exon 7 of the SMN gene is expressed, which correlates with increased full-length SMN production from the SMN2 gene. As controls, a homologue SMN1-luciferase reporter cell line looks for variations in expression of the SMN1 gene and a cell line with just the luciferase reporter looks at the capacity of the compounds to inhibit luciferase. In addition, increments in SMN production by lead compounds were confirmed by Western-Blot analysis using SMA patient fibroblasts.
For the qHTS assay, concentration-response profiles are generated at the primary-screen level for each library compound to minimize the number of false positives. A dilution series consisting of seven points separated by five-fold concentration differences is prepared for each compound, yielding a concentration series that spans a range of about four orders of magnitude, for example from a high concentration of 50 micromolar to a low concentration of 3.2 nanomolar and providing adequate data for fitting to a Hill equation. For the assay, the SMN2 reporter cell line was plated at a density of ˜2000 cells/well in complete media (phenol red free DMEM, 10% detacl calf serum, and 1× pen/strep), in 1536 well white solid bottom tissue culture treated plates (Greiner). Cells were allowed to adhere and recover at 37 C in 5% CO2 for 10-12 hours. Compounds were added to the plates by a Pintool (Kalypsys) at a volume of 23 nl/well. Cells were incubated in the presence of compounds for 2 days at 37 C in 5% CO2. In order to quantify luciferase reporter levels, 3 ul/well of OneGlo (Promega) was added to each well and incubated at room temperature for 10 minutes. Luminescence from the reporter in each well is measured using a Viewlux CCD based imager (Perkin Elmer) with an integration time of 30 seconds and a binning of 2× in luminescence mode. Sodium butyrate was used as the positive control compound for luciferase induction and a column of 32 wells of 9.2 mM compound on each plate was used to monitor assay performance.
The SMN reporters used herein are modified from those previously described (M. L. Zhang, C. L. Lorson, E. J. Androphy and J. Zhou, An in vivo reporter system for measuring increased inclusion of exon 7 in SMN2 mRNA: potential therapy of SMA, Gene Ther 8 (2001), pp. 1532-1538.)
The sequence of the SMN1 reporter vector used herein is given in SEQ ID NO.:1, while that of the SMN2 reporter vector is given in SEQ ID NO.:2.
Each of the SMN reporters is constructed from three separate DNA fragments: (1) an SMN promotor sequence from the transcriptional reporter p 4.0T (SMN1) or p3.4C (SMN2) described in Monani, et al. Biochimica et Biophysica Acta 1445 (1999) 330-336; (2) a modification of the firefly luciferase splicing reporter for SMN1 or SMN2 described by Zhang et al; and (3) a 744 bp SMN cDNA fragment.
The 3.7 kB SMN1 promoter fragment is obtained by restriction of p4.0T with BglII and SacII. A 3.4 kB SMN2 promoter fragment is obtained by restriction of p3.4C with KpnI and SacII; a 300 bp BglII/KpnI fragment from p4.0T is then added to the 3.4 kB SMN2 promoter fragment to yield the final 3.7 kB SMN2 promoter fragment.
The modified SMN1 and SMN2 firefly luciferase splicing reporters are obtained by removing 4 kB of intron 6 in the original reporter system by restriction with SmaI/Swa followed by religation of the reporter. A 4 kB luciferase splicing reporter is then obtaind by digestion with XhoI and NotI.
Ths SMN cDNA fragment is obtained by generating the productof a polymerase chain reaction (PCR) on a cDNA preparation using […] (SEQ ID NO:3) as the forward primer and Tatctcgagtggtccagaaggaaatggaggcagcc (SEQ ID NO:4) as the reverse primer. The PCR product is then digested with XhoI and SacII. […]

As for `N#Cc1ccc(-c2csc(N3CCC(C(N)=O)CC3)n2)cc1` [Example 18, 1-(4-(4-Cyanophenyl)Thiazol-2-yl)Piperidine-4-Carboxamide], the “Curve Class” value was 2.2 and the “Increased SMN2 activity” value is listed as 48.75%.
For `NC(=O)C1CCN(c2nc(-c3ccc(F)cc3)cs2)CC1` [Example 19, 1-(4-(4-Fluorophenyl)Thiazol-2-yl)Piperidine-4-Carboxamide], in that order: 1.1 and 287.7%.
The corresponding values for `NC(=O)C1CCN(c2nc(-c3ccc(Cl)cc3)cs2)CC1` [Example 20, 1-(4-(4-Chlorophenyl)Thiazol-2-yl)Piperidine-4-Carboxamide] are 1.1 and 380.6%.
The corresponding values for `Cc1ccc(-c2csc(N3CCC(C(N)=O)CC3)n2)cc1` [Example 21, 1-(4-(4-Methylphenyl)Thiazol-2-yl)Piperidine-4-Carboxamide] are 1.1 and 439.1%.
In the case of `NC(=O)C1CCN(c2nc(-c3ccc(C(F)(F)F)cc3)cs2)CC1` [Example 22, 1-(4-(4-Trifluoromethylphenyl)Thiazol-2-yl)Piperidine-4-Carboxamide], the “Curve Class” value is recorded as 1.1 and the “Increased SMN2 activity” value is listed as 386.1%.
Consider `COc1ccc(-c2csc(N3CCC(C(N)=O)CC3)n2)cc1` [Example 25, 1-(4-(4-Methoxyphenyl)Thiazol-2-yl)Piperidine-4-Carboxamide], for which the “Curve Class” value was 2.1 and the “Increased SMN2 activity” value came to 209.1%.
Take `NC(=O)C1CCN(c2nc(-c3cccc(Br)c3)cs2)CC1` [Example 26, 1-(4-(3-Bromophenyl)Thiazol-2-yl)Piperidine-4-Carboxamide]: the “Curve Class” value is 2.2 and the “Increased SMN2 activity” value was 57.55%.
For `NC(=O)C1CCN(c2nc(-c3ccc(-c4ccccc4)cc3)cs2)CC1` [Example 28, 1-(4-(Biphenyl-4-yl)Thiazol-2-yl)Piperidine-4-Carboxamide], in that order: 2.2 and 58.07%.
For `NC(=O)C1CCN(c2nc(-c3ccc([N+](=O)[O-])cc3)cs2)CC1` [Example 29, 1-(4-(4-Nitrophenyl)Thiazol-2-yl)Piperidine-4-Carboxamide], in that order: 2.1 and 254.3%.
The corresponding values for `NC(=O)C1CCN(c2nc(-c3ccccc3)cs2)CC1` [Example 30, 1-(4-Phenylthiazol-2-yl)Piperidine-4-Carboxamide] are 1.1 and 166.6%.
Take `Brc1ccc(-c2csc(N3CCCCC3)n2)cc1` [Example 32, 4-(4-Bromophenyl)-2-(Piperidin-1-yl)Thiazole]: the “Curve Class” value came to 2.1 and the “Increased SMN2 activity” value is reported as 272.6%.
The corresponding values for `NC(=O)C1CCN(c2nc(-c3cccc(F)c3)cs2)CC1` [Example 33, 1-(4-(3-Fluorophenyl)Thiazol-2-yl)Piperidine-4-Carboxamide] are 2.2 and 64%.
For `NC(=O)C1CCN(c2nc(-c3cccc(Cl)c3)cs2)CC1` [Example 34, 1-(4-(3-Chlorophenyl)Thiazol-2-yl)Piperidine-4-Carboxamide], in that order: 2.2 and 53.23%.
The corresponding values for `COc1cccc(-c2csc(N3CCC(C(N)=O)CC3)n2)c1` [Example 35, 1-(4-(3-Methoxyphenyl)Thiazol-2-yl)Piperidine-4-Carboxamide] are 1.1 and 357%.
`NC(=O)C1CCN(c2nc(-c3cccc([N+](=O)[O-])c3)cs2)CC1` [Example 37, 1-(4-(3-Nitrophenyl)Thiazol-2-yl)Piperidine-4-Carboxamide]: the “Curve Class” value was 2.4 and the “Increased SMN2 activity” value is given as 20.29%.
For `NC(=O)C1CCN(c2nc(-c3ccccc3F)cs2)CC1` [Example 38, 1-(4-(2-Fluorophenyl)Thiazol-2-yl)Piperidine-4-Carboxamide], in that order: 1.1 and 274.6%.
The corresponding values for `NC(=O)C1CCN(c2nc(-c3ccccc3Cl)cs2)CC1` [Example 39, 1-(4-(2-Chlorophenyl)Thiazol-2-yl)Piperidine-4-Carboxamide] are 2.2 and 57.61%.
Consider `CCOC(=O)C1CCN(c2nc(-c3ccc(Br)cc3)cs2)CC1` [Example 44, Ethyl 1-(4-(4-Bromophenyl)Thiazol-2-yl)Piperidine-4-Carboxylate], for which the “Curve Class” value was 1.1 and the “Increased SMN2 activity” value turned out to be 550.3%.
For `CC(=O)c1ccc(-c2csc(N3CCC(C(N)=O)CC3)n2)cc1` [Example 45, 1-(4-(4-Acetylphenyl)Thiazol-2-yl)Piperidine-4-Carboxamide], in that order: 2.1 and 130.4%.
For `Cc1cccc(-c2csc(N3CCC(C(N)=O)CC3)n2)c1` [Example 46, 1-(4-M-Tolylthiazol-2-yl)Piperidine-4-Carboxamide], in that order: 2.1 and 187.4%.
On to `NC(=O)C1CCN(c2nc(-c3ccc4c(c3)OCO4)cs2)CC1` [Example 47, 1-(4-(Benzo[D][1,3]Dioxol-5-yl)Thiazol-2-yl)Piperidine-4-Carboxamide], for which the “Curve Class” value was 1.1 and the “Increased SMN2 activity” value was determined as 359.16%.
For `NC(=O)C1CCN(c2nc(-c3ccc4occc(=O)c4c3)cs2)CC1` [Example 50, 1-(4-(4-Oxo-4H-Chromen-6-yl)Thiazol-2-yl)Piperidine-4-Carboxamide], in that order: 2.1 and 589.68%.
For `NC(=O)C1CCN(c2nc(-c3cccs3)cs2)CC1` [Example 51, 1-(4-(Thiophen-2-yl)Thiazol-2-yl)Piperidine-4-Carboxamide], in that order: 2.2 and 50.93%.
With `NC(=O)C1CCN(c2nc(-c3ccccc3N)cs2)CC1` [Example 53, 1-(4-(2-Aminophenyl)Thiazol-2-yl)Piperidine-4-Carboxamide], the “Curve Class” value came to 3 and the “Increased SMN2 activity” value was 79.57%.
For `CC(=O)c1cccc(-c2csc(N3CCC(C(N)=O)CC3)n2)c1` [Example 55, 1-(4-(3-Acetylphenyl)Thiazol-2-yl)Piperidine-4-Carboxamide], in that order: 1.1 and 356%.
For `NC(=O)C1CCN(c2nc(-c3ccc4ccccc4c3)cs2)CC1` [Example 56, 1-(4-(Naphthalen-2-yl)Thiazol-2-yl)Piperidine-4-Carboxamide], in that order: 1.1 and 162%.
The corresponding values for `NC(=O)C1CCN(c2nc(-c3ccc(N4CCCCC4)nc3)cs2)CC1` [Example 60, 1-(4-(6-(Piperidin-1-yl)Pyridin-3-yl)Thiazol-2-yl)Piperidine-4-Carboxamide] are 2.1 and 100%.
On to `CN(C)C(=O)c1cccc(-c2csc(N3CCC(C(N)=O)CC3)n2)c1` [Example 62, 1-(4-(3-(Dimethylcarbamoyl)Phenyl)Thiazol-2-yl)Piperidine-4-Carboxamide], for which the “Curve Class” value is on record as 2.2 and the “Increased SMN2 activity” value is on record as 51.18%.

The values above are taken from patent US20130096160A1, “ARYLTHIAZOLYL PIPERIDINES AND RELATED COMPOUNDS AS MODULATORS OF SURVIVAL MOTOR NEURON (SMN) PROTEIN PRODUCTION” (Secretary, Department of Health and Human Services, priority 2010, published 2013).
